# Measurements reported in US11684614B2, “Formulations of hydroxypyridonate actinide/lanthanide decorporation agents” (priority 2017, dated 2023).
# Like-named read-outs stand apart in the source and are kept apart here.
# How the values were obtained:
# [1] = Related substance assay / chromatographic API purity of prototype formulations; type: physicochemical
# From the text: Analytical Method I for Related Substance Assay (TABLE 2.5):
# This method was previously established and validated (see 3,4,3-L1(1,2-HOPO)—Excipient Compatibility Study; EXAMPLE 1). Suitability was therefore not re-evaluated as part of this study.
# Analytical Method I for Related Substance Assay (TABLE 2.6):
# The related substances, estimated as area (%) from the chromatograms, and the chromatographic purity of 3,4,3-L1(1,2-HOPO) in selected prototype formulations are listed in TABLE 2.28.
# [2] = type: in vivo, Swiss-Webster mice; details: for urinary excretion, of administered dose: rodents (mice)
# From the text: (§1) Formulated material was used in the single dose in vivo ADME characterization studies in Sprague Dawley rats and Swiss-Webster mice with 14C-labeled 3,4,3-L1(1,2-HOPO).
# (§2) Pharmacokinetic parameters and disposition/biodistribution of 3,4,3-L1(1,2-HOPO) were characterized in vivo (with the aid of two 14C labels on the spermine backbone of the parent product) in two non-GLP studies using Swiss-Webster mice and Sprague Dawley rats. The study designs for these two studies are shown in TABLE 5.1 and TABLE 5.2, respectively. Groups of six mice (3 male, 3 female) were given a single dose of [14C]-3,4,3-L1(1,2-HOPO) via iv, ip, or po routes, respectively. An additional group of six mice (3 male, 3 female) were administered the 14C-labeled API with permeability enhancer (10% sodium oleate) by oral gavage (po). Similarly, groups of six rats (3 male, 3 female) were administered a single iv dose of the 14C-labeled API or a single po dose of the 14C-labeled API with 10% sodium oleate. In each of these studies, samples were collected at scheduled time points up to 24 hr post-dose and analyzed for 14C content using liquid scintillation counting. Blood, liver, kidney, feces and urine were collected and analyzed from the mice. Blood, brain, liver, kidney, lungs, spleen, skeletal muscle tissues, gastrointestinal (GI) tract samples, carcasses, feces, and urine were collected and analyzed from the rats.
# [3] = Radiolabeled in vivo ADME study in rats (with metabolite profiling); set-up: species or system Sprague Dawley rats; details: for urinary excretion, of administered dose: rodents (rats)
# From the text: as §1, §2
# The principal excretion routes of radioactivity from [14C]-3,4,3-L1(1,2-HOPO) were both the feces and urine after an iv dose based on high levels of radioactivity in both feces and urine as well as significant radioactivity in the excretory tissues, kidney, liver and GI tract. Fecal elimination by 24 hr post-dose accounted for approximately 62% and 16% of the iv administered dose in mice and rats, respectively. Urinary excretion accounted for approximately 12-23% of the iv administered dose in these rodents with renal excretion of 14C beginning as early as 5 min after iv injection in mice. In contrast, following oral administration, excretion was primarily by the fecal route accounting for approximately 89% and 41% of the orally administered dose in mice and rats, respectively, by 24 h post-dose. Urinary excretion accounted for <1% of the orally administered dose and low radioactivity levels were detected in systemic circulation and in tissues except for the GI tract. […] Based on the colonic transit time in rats of 15.5 hr, 11 the radioactivity found in the feces in the first 24 hr after po administration is most likely unabsorbed compound. […] Metabolite profiling of [14C]-3,4,3-L1(1,2-HOPO) was performed using an HPLC method on selected urine, feces, kidney, liver, and lung samples from the Sprague Dawley rat. Only samples containing the highest total radioactive levels were selected for analysis. A total of 11 peaks were detected, of which 6 were from uncharacterized interactions between the test article and matrix components because they were also seen in spiked blank matrix controls. These 6 peaks are not metabolites and are considered alternate forms of the parent compound (e.g. complexes of the test article with metallic ions). The 5 other radioactive species (peaks P1-P4 and P10) are considered potential metabolites. Feces-specific metabolite peaks P2, P3, and P10 represented a combined 10.5-11.4% and 0.5-4.2% of the administered dose after po or iv administration, respectively, in rats. Peak P10 was the most abundant peak in all samples analyzed. It represented up to 10% of the administered dose in feces after po administration while the other two feces-specific peaks represented <1% of the administered dose after po administration. Peak P10 was also the predominant, and sometimes the only, peak in feces samples after iv administration. […]
compound,measurement,setting,value
O=C(NCCCN(CCCCN(CCCNC(=O)c1cccc(=O)n1O)C(=O)c1cccc(=O)n1O)C(=O)c1cccc(=O)n1O)c1cccc(=O)n1O [Drug Substance Control],"Chromatographic Purity of 3,4,3-LI(1,2-HOPO)","[1]; 3,4,3-LI(1,2-HOPO) peak",97.45 area (%)
same,"Related Substances, Unknown peak",[1]; RRT 0.59,0.01 area (%)
same,"Related Substances, Unknown peak",[1]; RRT 0.61,0.01 area (%)
same,"Related Substances, Unknown peak",[1]; RRT 0.62,0.01 area (%)
same,"Related Substances, Unknown peak",[1]; RRT 0.87,0.11 area (%)
same,"Related Substances, Unknown peak",[1]; RRT 0.89,0.13 area (%)
same,"Related Substances, Unknown peak",[1]; RRT 1.02,0.08 area (%)
same,"Related Substances, Unknown peak",[1]; RRT 1.11,0.04 area (%)
same,"Related Substances, Unknown peak",[1]; RRT 1.27,0.17 area (%)
same,"Related Substances, Unknown peak",[1]; RRT 1.30,0.10 area (%)
same,"Related Substances, Unknown peak",[1]; RRT 1.39,0.20 area (%)
same,"Related Substances, Unknown peak",[1]; RRT 1.40,0.04 area (%)
same,"Related Substances, Unknown peak",[1]; RRT 1.46,0.60 area (%)
same,"Related Substances, Unknown peak",[1]; RRT 1.74,0.15 area (%)
same,"Related Substances, Unknown peak",[1]; RRT 1.89,0.18 area (%)
same,"Related Substances, Unknown peak",[1]; RRT 2.17,0.33 area (%)
same,"Related Substances, Unknown peak",[1]; RRT 2.30,0.05 area (%)
same,"Related Substances, Unknown peak",[1]; RRT 2.58,0.25 area (%)
same,"Related Substances, Unknown peak",[1]; RRT 2.79,0.11 area (%)
"[14C]-3,4,3-L1(1,2-HOPO)",time of highest level of radioactivity in kidneys and liver,"[2]; ip, mice",1 h
same,"fecal elimination, of administered dose","[2]; iv, by 24 hr post-dose, mice",approximately 62%
same,AUC (plasma radioactivity),"[2]; iv, female mice",66.2 hr Pg-eq/ml
same,C0 (plasma radioactivity),"[2]; iv, female mice",342 Pg-eq/mL
same,AUC (plasma radioactivity),"[2]; iv, male mice",41.7 hr Pg-eq/ml
same,C0 (plasma radioactivity),"[2]; iv, male mice",76 Pg-eq/mL
same,time of highest level of radioactivity in kidneys and liver,"[2]; iv, mice",1 h
same,"urinary excretion, of administered dose",[2]; iv,12-23%
same,oral bioavailability improvement with sodium oleate,[2]; mice,2- to 3 fold
same,"fecal excretion, of administered dose","[2]; oral, by 24 h post-dose, mice",approximately 89%
same,bioavailability of total radioactivity,"[2]; oral, mice",< 3%
same,"urinary excretion, of administered dose",[2]; oral,< 1%
same,general rank order of tissue concentrations,"[3]; iv, 2 hr time point, rats",kidney>liver>lung>brain spleen muscle
same,"fecal elimination, of administered dose","[3]; iv, by 24 hr post-dose, rats",~16%
same,AUC (plasma radioactivity),"[3]; iv, female rats",211 hr Pg-eq/ml
same,C0 (plasma radioactivity),"[3]; iv, female rats",422 Pg-eq/ml
same,AUC (plasma radioactivity),"[3]; iv, male rats",354 hr Pg-eq/ml
same,C0 (plasma radioactivity),"[3]; iv, male rats",463 Pg-eq/ml
same,"feces-specific metabolite peaks P2, P3, and P10 combined, of the administered dose","[3]; iv, rats",0.5-4.2%
same,"metabolite peak P1 in urine, of the administered dose","[3]; iv, rats",≤ 0.4%
same,time of highest level of radioactivity in kidneys and liver,"[3]; iv, rats",2 h
same,"urinary excretion, of administered dose",[3]; iv,12-23%
same,"fecal excretion, of administered dose","[3]; oral, by 24 h post-dose, rats",~41%
same,bioavailability of total radioactivity,"[3]; oral, rats",< 3%
same,"putative major metabolite (P10), of an administered oral dose","[3]; oral, rats",~10%
same,"urinary excretion, of administered dose",[3]; oral,< 1%
same,"feces-specific metabolite peaks P2, P3, and P10 combined, of the administered dose","[3]; po, rats",10.5-11.4%
same,"other two feces-specific peaks, of the administered dose","[3]; po, rats",< 1%
same,"peak P10 in feces, of the administered dose","[3]; po, rats",up to 10%
